Data: PMC9583845, “Characterization of the chicken melanocortin 5 receptor and its potential role in regulating hepatic glucolipid metabolism” (Frontiers in Physiology, 2022)
Entries after “also recorded” stand apart in the source; their conditions may differ.

Tests used:
[1] = test system: primary chicken hepatocytes; experiment: Glucose production from primary cultured chicken hepatocytes; type: cell-based; conditions: primary chicken hepatocytes; 100 nM for 30 or 60 min, or 0.1–100 nM for 60 min; gluconeogenic substrates 20 mM lactate, 2 mM pyruvate; four independent experiments; Figures 7A,B
Method: (§1) To evaluate the effect of ACTH1-39 on chicken liver, the chicken hepatocytes were prepared and maintained as a monolayer culture. Briefly, one-month-old male chicken hepatocytes were isolated by perfusion of a liver with Ca^2+-free KRB buffer to remove blood cells, and being digested with 0.25% collagenase-I for 10 min. Hepatocytes were obtained following filtering and washing using M199 medium. Then the hepatocytes were plated in a Corning CellBIND 48-well microplate (Corning, NY, cat. no.3338) with M199 medium containing 100 U/ml penicillin and […] streptomycin (Gibco), 5 μg/ml bovine insulin (Sigma), and 5% FBS at 37°C in a 5% CO2 atmosphere. To adhere to the wall, the cells were incubated on the 48-well plate for 4 h.
Glucose production from primary cultured chicken hepatocytes was measured as previously described ([Collins et al., 2006]). Briefly, cells were washed three times with warm phosphate-buffered saline (PBS) to remove glucose, followed by treatment with 100 nM (or different concentration gradients) chicken ATCH1-39 for 30 min or 60 min in glucose-free medium containing gluconeogenic substrates (20 mM sodium lactate and 2 mM sodium pyruvate). Glucose concentration was determined with a glucose assay kit (Applygen, Beijing, China, catalog no. E1011). Briefly, the 5 µl medium was added into 195 µl reagent and incubated for 20 min at 37°C. Absorbance in 550 nm was measured in a standard glucose solution.

[2] = test system: MC5R mRNA, primary chicken hepatocytes; experiment: MC5R mRNA in primary chicken hepatocytes, RT-qPCR; type: cell-based; conditions: 6 h
Method: as §1, with “h. For quantitative real-time PCR, primary cultured chicken hepatocytes were treated with various concentrations of ACTH1-39 (or other composition) at 37°C for 6 h. The relative amount of mRNA was calculated using the comparative Ct method. Chicken β-actin gene was used as the reference gene. Amplification of specific transcripts was confirmed by analyzing the melting curve profile performed at the end of each run and by determining the size of the PCR products using agarose electrophoresis and ethidium bromide staining.” for “h.”

[3] = test system: intracellular cAMP / CREB; conditions: ref Herzig et al., 2001; Noriega et al., 2011; cited from earlier work
Description: Like its mammalian counterparts, numerous putative transcription factor binding sites were found in the upstream of the MC5R transcription start site. According to reports, Foxo4 may bind to the ...

glucagon: chicken glucagon; induce cAMP elevation in a dose-dependent way
glucose production (in words) [1]: induction of gluconeogenesis
increase in MC5R mRNA abundance ([2]; glucagon 10–100 nM, N = 4, Figure 6E): 3.5 fold
MC5R mRNA abundance (in words) ([2]; primary chicken hepatocytes, N = 4, vs β-actin, Figures 6C-E): increased hepatic MC5R mRNA abundance; also recorded: enhance the expression of MC5R in cultured hepatocytes in a dose-dependent manner
intracellular cAMP accumulation and CREB activation [3]: enhance the intracellular cAMP accumulation and activate CREB
